{
  "source": "patent US6528528B2",
  "about": "(Warner-Lambert Company, priority 1997, dated 2003)",
  "data": [
    {"target": "T1, rabbit reticulocyte 15-LO (Oryctolagus cuniculus, UniProt P12530)", "T1 construct": "Fifteen-lipoxygenase was obtained from phenylhydrazine-treated rabbits and purified per the method of Rapoport; from tissue; host or cells: reticulocytes of phenylhydrazine-treated rabbits", "T1 sequence (P12530 1-663)": "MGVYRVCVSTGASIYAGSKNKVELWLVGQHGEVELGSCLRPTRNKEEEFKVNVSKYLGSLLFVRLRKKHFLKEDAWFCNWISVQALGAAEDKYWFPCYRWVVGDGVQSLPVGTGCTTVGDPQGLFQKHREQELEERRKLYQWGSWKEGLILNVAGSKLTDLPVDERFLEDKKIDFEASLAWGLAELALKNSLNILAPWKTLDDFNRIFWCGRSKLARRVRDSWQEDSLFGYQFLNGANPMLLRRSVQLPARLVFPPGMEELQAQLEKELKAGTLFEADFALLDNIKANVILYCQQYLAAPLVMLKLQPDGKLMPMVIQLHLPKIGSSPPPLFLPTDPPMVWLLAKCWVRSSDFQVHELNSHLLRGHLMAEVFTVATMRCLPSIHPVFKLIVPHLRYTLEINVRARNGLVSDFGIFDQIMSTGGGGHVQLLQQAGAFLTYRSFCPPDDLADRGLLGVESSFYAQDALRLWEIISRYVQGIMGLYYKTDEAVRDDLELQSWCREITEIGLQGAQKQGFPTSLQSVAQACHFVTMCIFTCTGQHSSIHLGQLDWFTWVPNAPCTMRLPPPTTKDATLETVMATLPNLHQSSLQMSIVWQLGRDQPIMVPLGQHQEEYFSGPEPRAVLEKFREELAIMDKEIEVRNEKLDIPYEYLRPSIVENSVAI", "assay": "Rabbit Reticulocyte 15-LO Assay (h15LO)", "assay_type": "biochemical", "details": "0.25 h; Table 2; @ 10 μM; read-out: h15LO % @ 10 μM", "description": "(§1) Rabbit Reticulocyte 15-LO Assay (h15LO)\n(§2) The present 15-LO assay takes advantage of the ability of 15-LO to oxidize the fatty acid linoleic acid to the hydroperoxy fatty acid 13-(S)HPODE, resulting in the formation of a conjugated diene. The 15-LO inhibitors are incubated with 15-LO enzyme in the presence of linoleic acid substrate. The initial reaction is compared to an uninhibited (maximal) reaction to yield % inhibition. […] This prevents artificial nonenzyme lipid peroxidation and product breakdown in the sample. 13-HPODE is quantitated by comparing peak areas of individual samples with those from a standard curve generated using authentic 13-HODE. This assay is performed using 2U of rabbit reticulocyte 15-LO in the presence of 174 μM linoleic acid. The reaction is incubated for 15 minutes at 4° C. The total reaction volume is 100 μL in PBS containing 0.2% Na cholate.\n(§3) Fifteen-lipoxygenase was obtained from phenylhydrazine-treated rabbits and purified per the method of Rapoport (Rapoport S. M., Schewe T., Wiesner R., et al. The lipoxygenase of reticulocytes. Purification, characterization, and biological dynamics of the lipoxygenase; its identity with the respiratory inhibitors of the reticulocyte. European Journal of Biochemistry, 1979;96:545-561). The following chemicals were purchased and used as received: linoleic acid (NUJCheck Prep), 13-HPODE (Biomol Research Labs), sodium cholate (Sigma), trimethyl phosphite (Fluka Chemicals).", "units": {"inhibition at 10 µM": "%"}, "values": [
      {"molecule": "O=C(Nc1ccccc1)c1cc(NC(=S)Nc2cc(Cl)cc(Cl)c2)ccc1F", "note": "[Example 101, 5-[3-(3,5-Dichlorophenyl)-thioureido]-2-fluoro-N-phenyl-benzamide]", "inhibition at 10 µM": 66}
    ]},
    {"target": "T1, rabbit reticulocyte 15-LO", "assay": "Rabbit Reticulocyte 15-LO Assay (h15LO)", "assay_type": "biochemical", "details": "Table 2; 2U rabbit reticulocyte 15-LO, 174 μM linoleic acid, 15 minutes at 4° C.", "description": "as §1, §2, §3", "units": {"IC50": "nM"}, "values": [
      {"molecule": "COc1ccc(C(=O)Nc2ccccc2)cc1NCc1ccc(F)cc1", "note": "[Example 224, 4-Methoxy-3-(4-fluoro-benzylamino)-N-phenyl-benzamide]", "IC50": 982},
      {"molecule": "CCN(CC)c1ccc(CNc2cc(C(=O)Nc3ccccc3)ccc2OC)cc1", "note": "[Example 211, 3-(4-Diethylamino-benzylamino)-4-methoxy-N-phenyl-benzamide]", "IC50": 69},
      {"molecule": "COc1ccc(C(=O)Nc2ccccc2)cc1NS(=O)(=O)c1ccc(C(=O)O)cc1", "note": "[Example 183, 4-(2-Methoxy-5-phenylcarbamoyl-phenylsulfamoyl)-benzoic Acid]", "IC50": 293},
      {"molecule": "COc1ccc(C(=O)Nc2ccc(F)c(F)c2)cc1NCc1cccs1", "note": "[Example 258, 4-Methoxy-3-[(thiophen-2-ylmethyl)-amino]-N-(3,4-difluoro-phenyl)-benzamide]", "IC50": 35},
      {"molecule": "COc1ccc(CNc2cc(C(=O)Nc3ccccc3)ccc2OC)cc1", "note": "[Example 216, 4-Methoxy-3-(4-methoxy-benzylamino)-N-phenyl-benzamide]", "IC50": 118},
      {"molecule": "COc1ccc(NC(=O)c2ccc(Cl)c(Cl)c2)cc1NCc1cccs1", "note": "[Example 264, 3,4-Dichloro-N-{4-methoxy-3-[(thiophen-2-ylmethyl)-amino]-phenyl}-benzamide]", "IC50": 37},
      {"molecule": "COc1ccc(C(=O)Nc2ccc(F)c(F)c2)cc1NCc1cccc(O)c1", "note": "[Example 210, 3-(3-Hydroxy-benzylamino)-4-methoxy-N-(3,4-difluoro-phenyl)-benzamide]", "IC50": 24},
      {"molecule": "COc1ccc(C(=O)Nc2ccccc2)cc1NCc1cccc(F)c1", "note": "[Example 214, 4-Methoxy-3-(3-fluoro-benzylamino)-N-phenyl-benzamide]", "IC50": 89},
      {"molecule": "COc1ccc(C(=O)Nc2ccc(F)c(F)c2)cc1NS(=O)(=O)c1cccc([N+](=O)[O-])c1", "note": "[Example 180, 3-(3-Nitro-benzenesufonylamino)-4-methoxy-N-(3,4-difluoro-phenyl)-benzamide]", "IC50": 36},
      {"molecule": "COc1ccc(C(=O)Nc2ccccc2)cc1NCc1ccccc1C", "note": "[Example 223, 4-Methoxy-3-(2-methyl-benzylamino)-N-phenyl-benzamide]", "IC50": 892},
      {"molecule": "COC(=O)c1ccc(CNc2cc(C(=O)Nc3ccccc3)ccc2OC)cc1", "note": "[Example 221, 4-[(2-Methoxy-5-phenylcarbamoyl-phenylamino)-methyl]-benzoic Acid Methyl Ester]", "IC50": 551},
      {"molecule": "COc1ccc(C(=O)Nc2ccccc2)cc1NS(=O)(=O)c1cc(Cl)cc(Cl)c1", "note": "[Example 248, 3-(3,5-Dichloro-benzenesulfonylamino)-4-methoxy-N-phenyl-benzamide]", "IC50": 46},
      {"molecule": "Cc1ccc(C(=O)Nc2ccccc2)cc1Nc1ccccc1", "note": "[Example 38, 3-Phenylamino-4-methyl-N-phenyl-benzamide]", "IC50": "> 3000"},
      {"molecule": "COc1ccc(C(=O)Nc2ccccc2)cc1NCc1cccc(Cl)c1", "note": "[Example 231, 3-(3-Chloro-benzylamino)-4-methoxy-N-phenyl-benzamide]", "IC50": 224},
      {"molecule": "CCCCCCCCCCCCS(=O)(=O)Nc1cc(C(=O)Nc2ccccc2)ccc1OC", "note": "[Example 177, 3-(Dodecane-1-sulfonylamino)-4-methoxy-N-phenyl-benzamide]", "IC50": 2},
      {"molecule": "COc1ccc(C(=O)Nc2ccccc2)cc1NS(=O)(=O)C(C)C", "note": "[Example 182, 3-(1-Methylethyl-1-sulfonylamino)-4-methoxy-N-phenyl-benzamide]", "IC50": 232},
      {"molecule": "COc1ccc(NC(=O)c2ccc(F)c(F)c2)cc1NC(=S)Nc1cccc(C(=O)O)c1", "note": "[Example 169, 3-{3-[5-(3,4-Difluoro-benzoylamino)-2-methoxy-phenyl]-thioureido}-benzoic Acid]", "IC50": 246}
    ]},
    {"target": "T1, rabbit reticulocyte 15-LO", "assay": "Rabbit Reticulocyte 15-LO Assay (h15LO)", "assay_type": "biochemical", "details": "Table 2; concentration not given", "description": "as §1, §2, §3", "units": {"h15LO, value given as bare %": "%"}, "values": [
      {"molecule": "COc1ccc(C(=O)Nc2ccccc2)cc1NCc1ccc(C)cc1", "note": "[Example 237, 4-Methoxy-3-(4-methyl-benzylamino)-N-phenyl-benzamide]", "h15LO, value given as bare %": 64},
      {"molecule": "COc1ccc(NC(=O)Nc2ccc(Cl)c(Cl)c2)cc1N", "note": "[Example 152, 1-(3-Amino-4-methoxy-phenyl)-3-(3,4-dichloro-phenyl)-urea]", "h15LO, value given as bare %": 57.49},
      {"molecule": "Nc1cc(C(=O)Nc2ccccc2)ccc1OC(F)(F)F", "note": "[Example 147, 3-Amino-4-trifluoromethoxy-N-phenyl-benzamide]", "h15LO, value given as bare %": 37.05},
      {"molecule": "COc1ccc(NC(=O)c2ccc(F)c(F)c2)cc1NS(=O)(=O)c1ccc(C#N)cc1", "note": "[Example 204, 3,4-Difluoro-N-[3-(4-cyano-benzenesulfonylamino)-4-methoxy-phenyl]-benzamide]", "h15LO, value given as bare %": 89.54},
      {"molecule": "O=C(Nc1ccc(F)c(NC(=S)Nc2cc(Cl)cc(Cl)c2)c1)c1ccc(F)c(F)c1", "note": "[Example 170, N-{3-[3-(3,5-Dichloro-phenyl)-thioureido]-4-fluoro-phenyl}-3,4-difluoro-benzamide]", "h15LO, value given as bare %": 99.53},
      {"molecule": "O=C(Nc1ccc(F)cc1)c1ccc(OC(F)(F)F)c(Nc2cccc(C(F)(F)F)c2)c1", "note": "[Example 159, 4-Trifluoromethoxy-3-(3-trifluoromethyl-phenylamino)-N-(4-fluoro-phenyl)-benzamide]", "h15LO, value given as bare %": 44.58},
      {"molecule": "COc1ccc(NC(=O)Nc2ccc(Cl)c(Cl)c2)cc1NC(=S)Nc1cc(C(F)(F)F)cc(C(F)(F)F)c1", "note": "[Example 174, 1-{3-[3-(3,5-Bis-trifluoromethyl-phenyl)-thioureido]-4-methoxy-phenyl}-3-(3,4-dichloro-phenyl)-urea]", "h15LO, value given as bare %": 53},
      {"molecule": "CCCCc1ccc(CNc2cc(C(=O)Nc3ccccc3)ccc2OC)cc1", "note": "[Example 239, 3-(4-Butyl-benzylamino)-4-methoxy-N-phenyl-benzamide]", "h15LO, value given as bare %": 58.44},
      {"molecule": "CCN(CC)c1ccc(CNc2cc(C(=O)Nc3ccc(F)c(F)c3)ccc2OC)cc1", "note": "[Example 226, 3-(4-Diethylamino-benzylamino)-4-methoxy-N-(3,4-difluoro-phenyl)-benzamide]", "h15LO, value given as bare %": 96.21},
      {"molecule": "COc1ccc(C(=O)Nc2ccccc2)cc1NCc1ccc(C)c(C)c1", "note": "[Example 242, 3-(3,4-Dimethyl-benzylamino)-4-methoxy-N-phenyl-benzamide]", "h15LO, value given as bare %": 50},
      {"molecule": "COc1ccc(NC(=O)c2ccc(F)c(F)c2)cc1NS(=O)(=O)c1ccc(N)cc1", "note": "[Example 199, 3,4-Difluoro-N-[4-methoxy-3-(4-amino-benzenesulfonylamino)-phenyl]-benzamide]", "h15LO, value given as bare %": 97.68},
      {"molecule": "O=C(Nc1ccc(F)c(NS(=O)(=O)c2cccs2)c1)c1ccc(F)c(F)c1", "note": "[Example 206, 3,4-Difluoro-N-[4-fluoro-3-(thiophene-2-sulfonylamino)-phenyl]-benzamide]", "h15LO, value given as bare %": 45.56},
      {"molecule": "COc1ccc(C(=O)Nc2ccccc2)cc1NS(=O)(=O)c1cccc(C#N)c1", "note": "[Example 195, 3-(3-Cyano-benzenesulfonylamino)-4-methoxy-N-phenyl-benzamide]", "h15LO, value given as bare %": 93.07},
      {"molecule": "COc1ccc(C(=O)Nc2cccnc2)cc1NCc1cccs1", "note": "[Example 262, 4-Methoxy-3-[(thiophen-2-ylmethyl)-amino]-N-pyridin-3-yl-benzamide]", "h15LO, value given as bare %": 67.58},
      {"molecule": "COc1ccc(C(=O)Nc2ccc(F)cc2)cc1NS(=O)(=O)c1ccc([N+](=O)[O-])cc1", "note": "[Example 191, 4-Methoxy-3-(4-nitro-benzenesulfonylamino)-N-(4-fluoro-phenyl)-benzamide]", "h15LO, value given as bare %": 96.99},
      {"molecule": "COc1ccc(C(=O)Nc2ccccc2)cc1NC(=S)Nc1cccc([N+](=O)[O-])c1", "note": "[Example 254, 4-Methoxy-3-[3-(3-nitro-phenyl)-thioureido]-N-phenyl-benzamide]", "h15LO, value given as bare %": 51},
      {"molecule": "COc1ccc(NC(=O)c2ccc(F)c(F)c2)cc1NS(=O)(=O)c1cccc(N)c1", "note": "[Example 198, 3,4-Difluoro-N-[4-methoxy-3-(3-amino-benzenesulfonylamino)-phenyl]-benzamide]", "h15LO, value given as bare %": 97.77},
      {"molecule": "COc1ccc(NC(=O)c2ccc(F)c(F)c2)cc1NCc1cccc(C(=O)O)c1", "note": "[Example 246, 3-{[5-(3,4-Difluoro-benzoylamino)-2-methoxy-phenylandno]-methyl}-benzoic Acid]", "h15LO, value given as bare %": 59.75}
    ]}
  ]
}
